Experimental data taken from patent publication EP0413433A1, “Isoindolyl-imidazole-derivatives and pharmaceutical compositions” (Beecham Group p.l.c., priority 1989, dated 1991).

What was measured:
[1] = system: post-junctional α₁-adrenoceptors; experiment: Post-junctional α₁-adrenoceptor agonism: contraction of rings of rabbit aorta in comparison with noradrenaline; settings: agonist contraction in comparison with noradrenaline
Procedure: Post-junctional α₁ activity was determined using a method similar to that for post-junctional α₂ activity, but using rings of rabbit aorta. Contractions of this tissue are mediated by post-junctional α₁-adrenoceptors (Docherty et al. 1981), and so the pD2 and intrinsic activity (IA) of α₁-adrenoceptor agonists were calculated from their ability to contract the rings of aorta in comparison with noradrenaline.

[2] = system: post-junctional α₂-adrenoceptors; experiment: Post-junctional α₂-adrenoceptor antagonism: antagonism of noradrenaline contractions in ring segments of rabbit lateral saphenous vein; settings: rabbit lateral saphenous vein rings, 37°C, Krebs medium
Procedure: To determine post-junctional α₂-adrenoceptor activity, ring segments of rabbit lateral saphenous vein were mounted in organ baths at 37 °C containing Krebs medium. Contractions of this tissue in response to noradrenaline are mediated via post-junctional α₂-adrenoceptors (Alabaster et al, 1985) and therefore the ability of α₂-adrenoceptor antagonists to pharmacologically antagonise such contractions gives a quantitive measure of the activity of compounds for this receptor subtype.

[3] = molecular target: T1, α2-Adrenoceptor (Homo sapiens, UniProt P08913); experiment: α2-Adrenoceptor binding: [³H] Rauwolscine displacement on human platelet membranes; settings: [³H] Rauwolscine (0.5-1.0 nM), 30 minutes at 30°C, Cheng Prussoff equation, read-out: Binding Affinity. Ki
T1 construct: Rauwolscine; from tissue; host or cells: human platelet membranes
T1 sequence (P08913 1-465): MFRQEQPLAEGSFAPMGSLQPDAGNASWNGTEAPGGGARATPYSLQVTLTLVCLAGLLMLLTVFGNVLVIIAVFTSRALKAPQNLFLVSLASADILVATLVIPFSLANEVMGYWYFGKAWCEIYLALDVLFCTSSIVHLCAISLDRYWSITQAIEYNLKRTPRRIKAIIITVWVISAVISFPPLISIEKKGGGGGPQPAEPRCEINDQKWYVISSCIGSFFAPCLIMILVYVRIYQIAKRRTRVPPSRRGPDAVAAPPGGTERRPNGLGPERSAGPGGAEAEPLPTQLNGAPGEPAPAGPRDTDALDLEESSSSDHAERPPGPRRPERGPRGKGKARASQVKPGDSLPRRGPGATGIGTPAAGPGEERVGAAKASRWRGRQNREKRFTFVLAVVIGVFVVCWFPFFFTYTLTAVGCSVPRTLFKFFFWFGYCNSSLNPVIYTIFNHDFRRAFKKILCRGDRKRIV
Procedure: Human platelet membranes were incubated with [³H] Rauwolscine (0.5-1.0 nM) for 30 minutes at 30 °C with varying concentrates of the drug (0.1-10,000 nM). The binding assay was stopped by filtering and rinsing on GF/B glass fibre filters.
Binding Affinity (Ki) was calculated using the Cheng Prussoff equation.

Ki [3]: 0.3 nM
SMILES: C[C@@H]1c2ccccc2CN1CC1=NCCN1 [Example 1, (R)-2-[(4,5-Dihydro-1H-imidazol-2-yl)methyl]-2,3-dihydro-1-methyl-1H-isoindole]
Post-synaptic pD₂ [1]: <4
Post-synaptic PA₂ [2]: 7.3
